Data published in patent US20020004058A1, “Immunomodulating and antiinflammatory agent” (priority 1993, published 2002).

Key:
[1] = test system: TNP-specific DTH reaction; assay: TNP-specific DTH reaction (paw swelling) in mice sensitized with TNP-SRBC; format: in vivo, male BALB/c mice; details: for Swelling in Paws After 24 Hrs.: difference right/left paw 24 hours after TNB induction on day 14; for Swelling in Paws After 24 Hrs. / Swelling in Paws After 48 Hrs.: drugs by hypodermic injection four days from sensitization; for Swelling in Paws After 48 Hrs.: difference right/left paw 48 hours after TNB induction on day 14; for action to the delayed type hypersensitivity (DTH), in words: hypodermic injection four days from sensitization
Procedure: (§1) Trinitrobenzenesulfonic acid (TNBS) was dissolved in a physiological saline solution buffered with phosphoric acid to prepare a solution (40 mg/7.0 ml; pH 7.2) and then 1 ml of sheep red cell pellets was dropped thereinto with stirring. The mixture was allowed to stand at room temperature with stirring for several times under a light-shielding state and washed with a physiological saline solution three times. Then it was centrifuged at 3,000 rpm for five minutes and made into a solution of 5×10^9 cells/ml using a physiological saline solution.
The mice were sensitized with TNP-SRBC as described in paragraph (2) above. On the 14th day, 0.025 ml of TNB (4.7 mg/ml) was injected into the right hind paw to induce a TNP-specific DTH reaction. After 24 hours and 48 hours from the induction, the thickness of both paws was measured using a dial gauge. The difference in the thickness between the right and left paws was expressed as the intensity of the DTH reaction. […] This measuring system for the DTH reaction can be subjected to further tests using the same mice as in the case of the antibody production system of paragraph (2) above.
(§2) The above-mentioned test system was used for checking the action of: (a) the histamine-added mouse gamma-globulin (150 mg/kg/day) (the product of the present invention), (b) cyclosporin A (100 mg/kg/day), (c) cyclophosphamide (100 mg/kg/day), (d) prednisolone ([…]) and (e) levamizole (5 mg/kg/day) towards the anti-TNP antibody production and to the TNP-specific DTH reaction. The drugs were administered by hypodermic injection four days from the sensitization with TNP-SRBC.

[2] = test system: anti-TNP antibody production; assay: Production of a TNP-specific antibody (anti-TNP IgM and IgG, ELISA) in mice sensitized with TNP-SRBC; format: in vivo, male BALB/c mice; details: hypodermic injection four days from sensitization
Procedure: as §1
TNP-SRBC (10^9 cells) was intraperitoneally administered to male BALB/c mice of six to eight weeks age and the anti-TNP antibody in serum was measured by an enzymatic immunoassay (ELISA) using a dinitrophenyl-bovine serum albumin (DNP-BSA).
as §2

[3] = test system: eosinophils exudated to peritoneum; assay: Hypereosinophilic model induced by ragweed pollen antigen; format: in vivo, female BALB/c mice
Procedure: A ragweed pollen extract (which was diluted to an extent of 1,000 times using a physiological saline solution) was hypodermically injected into female BALB/c mice of six to eight weeks age for sensitization at the dose of 0.1 ml on the initiation day and on the first day and 0.2 ml on the sixth, eighth and fourteenth days. On the twentieth day, 0.2 ml of a 1,000 times diluted ragweed antigen was intraperitoneally injected into the mice to induce the reaction. On the 24th hour after the induction, the peritoneal exudate cells were recovered and subjected to a Giemsa staining and the total cell numbers, number of eosinophils, number of neutrophils and number of mononuclear cells were counted. As a result, the number of the eosinophils peaked 24 hours after the induction. […] The above-mentioned hypereosinophilic models were used for checking the action towards the hypereosinophilicity by a hypodermic injection of the product of the present invention. Thus, histamine-added mouse gamma-globulin, at a dose of 3 mg/mouse/day twice a week for three weeks was administered until the induced day. Further tests were conducted by administering the corresponding amount of each of histamine (dihydrochloride) and mouse gamma-globulin which are the constituting components of the histamine-added mouse gamma-globulin.

[4] = test system: eosinophils exudated to peritoneum; assay: Hypereosinophilic model induced by platelet activating factor (PAF); format: in vivo, female BALB/c mice
Procedure: A PAF (5 micrograms/200 microliters) was intraperitoneally injected into female BALB/c mice of six to eight weeks age to induce the reaction. After 24 hours from the induction, the peritoneal exudate cells were recovered and the number of the eosinophils were counted.

Row | Compound | Swelling in Paws After 24 Hrs. [1] | Swelling in Paws After 48 Hrs. [1] | action to the delayed type hypersensitivity (DTH), in words [1] | action upon anti-TNP IgG antibody production (FIG. 2), in words [2] | action upon anti-TNP IgM antibody production (FIG. 1), in words [2] | Number of Eosinophils Exudated to Peritoneum ([3]; ragweed antigen induced, 24 h after induction, product 3 mg/mouse/day s.c. twice a week for three weeks, components in corresponding amount, cyclosporin A 100 mg/kg/day three days) | suppression of eosinophil exudation into peritoneum, ragweed pollen antigen model, in words ([3]; twice a week for three weeks until the induced day) | Number of Exudated Eosinophils to Peritoneum ([4]; PAF 5 micrograms i.p., 24 hours after induction) | suppressive action upon hypereosinophilicity induced by PAF, in words ([4]; same manner of administration as ragweed model)
1 | O=P1(N(CCCl)CCCl)NCCCO1 (stereo not shown) [Cyclophosphamide, cyclophosphamide] | 13.3 ± 2.1 ×10^−2 mm | 15.8 ± 2.4 ×10^−2 mm | clear suppressive actions | significantly suppressed | significantly suppressed | – | – | – | –
2 | Cl.Cl.NCCc1c[nH]cn1 [Histamine, histamine (dihydrochloride)] | – | – | – | – | – | 3.4 ± 0.6 ×10^5 cells | not observed | 2.2 ± 0.8 ×10^5 cells | not observed
3 | c1ccc([C@H]2CN3CCSC3=N2)cc1 [Lavamizole, levamizole] | 40.0 ± 6.5 ×10^−2 mm | 20.0 ± 5.0 ×10^−2 mm | no significant effect | did not significantly affect | did not significantly affect | – | – | – | –
4 | C[C@]12C=CC(=O)C=C1CC[C@@H]1[C@@H]2[C@@H](O)C[C@@]2(C)[C@H]1CC[C@]2(O)C(=O)CO [Prednisolone, prednisolone] | 30.0 ± 5.6 ×10^−2 mm | 8.3 ± 3.3 ×10^−2 mm | weak suppressive action | did not significantly affect | did not significantly affect | – | – | – | –
